Results as given in patent US9163020B2, “Azaindole compounds, synthesis thereof, and methods of using the same” (Global Alliance for TB Drug Development, priority 2013, dated 2015).
≈ marks a conversion by molar mass, not a printed value. Read-outs that look alike come from different tables or passages of the source.

Experiments:
in vivo [1] = details: BALB/c, mouse, po
in vitro [2] = assay type: in vitro ADME; details: pH 7.4; mouse microsomes; read-out: Mo micrsomal Clint
Procedure: (§1) 1 μM compound was incubated with 1 mg/mL of microsomes (Pooled HLM/MLM with 20 mg/ml protein cone.) at 37° C. in 166 μL of buffer (100 mM phosphate buffer, pH-7.4) containing 2 mM NADPH solution. 20 μL of incubation mix was quenched with 4 volumes chilled acetonitrile at different time points i.e. 0, 2, 5, 10, 20 and 30 min in a fresh 96 well plate. The quench plate was centrifuged at 4000 rpm for 15 min. 30 μL of supernatant was diluted to 300 μL with 50% acetonitrile in water and substrate depletion was analyzed using LC-MS/MS.

[3] = assay type: in vitro ADME; details: for predicted clearance: human, rat; for Human CLpred microsomes (% LBF): pH 7.4
Procedure: as §1, with “20 μL of incubation mix was quenched with 4 volumes chilled acetonitrile at different time points i.e. 0, 2, 5, 10, 20 and 30 min in a fresh 96 well plate.” left out

in vivo [4] = assay: in vivo
Procedure: PK of azaindoles compounds was performed in mice (healthy and infected) and rats. Mice were pretreated with 100 mg/kg ABT two hours prior to the compound administration. PK data from healthy mice was used to design the dosing regimen for the efficacy study while, information from infected mice was used for the PK-PD analysis.
All oral administration was performed as suspensions in 0.5% HPMC, and 0.1% Tween 80. […] All blood samples were collected via sapheneous vein into Microvette CB300® (Starstedt, Germany) tubes coated with Lithium-Heparin, and plasma was prepared from the collected blood by centrifugation.
One mg/mL stock solution of each compound was prepared in Dimethylsulfoxide (DMSO) and diluted two-fold with acetonitrile. A sixteen point calibration curve was utilized for each analyte, and the standard curves ranged from 0.001 to 40 μg/mL. Plasma/BAL samples were precipitated by adding chilled acetonitrile (1:10 v/v) containing carbamazepine as internal standard (250 ng/mL). Samples were vortexed, and centrifuged at 4000 rpm for 30 min at 10° C. The resulting supernatant was mixed with mobile phase (50% acetonitrile in water with 0.1% formic acid). […] of sample was injected on to a liquid chromatographic system (Waters-ACQUTY UPLC) coupled to triple quadrupole mass spectrometer (Waters-ACQUTY-TQD; MS/MS). Samples were acquired in positive ion mode and detected by multiple reaction monitoring (MRM). Concentrations of the analyte were determined from a standard curve obtained by plotting known concentrations of the analyte against peak area ratios (analyte/internal standard peak response).
PK analysis of the plasma concentration-time relationships were performed with WinNonlin Phoenix Software (version 6.2; Pharsight, USA). […] The maximum concentration of drug in plasma (Cmax), time to Cmax (Tmax), elimination half-life (t1/2), and AUC from time zero to infinity (AUC0-∞) were estimated. […] Minimum of three sample points in the terminal slope were used to estimate to calculate half-life.

[5] = Procedure: Viability of cryopreserved hepatocytes was determined using trypan blue and the cell conc. was adjusted to 10^6 cells per mL with buffer (KHB buffer). 1 μM compound (in Acetonitrile; 0.01% DMSO) was incubated with 500 μL of hepatocyte cells (1 million cells per mL) in a NUNC plate. […] Supernatants were analyzed using LC-MS/MS for substrate depletion.
in vivo [6] = details: BALB/c, mouse, po, 50 mg/kg
hERG [7] = target: T1, hERG (Homo sapiens, UniProt Q12809)
T1 sequence (Q12809 whole entry): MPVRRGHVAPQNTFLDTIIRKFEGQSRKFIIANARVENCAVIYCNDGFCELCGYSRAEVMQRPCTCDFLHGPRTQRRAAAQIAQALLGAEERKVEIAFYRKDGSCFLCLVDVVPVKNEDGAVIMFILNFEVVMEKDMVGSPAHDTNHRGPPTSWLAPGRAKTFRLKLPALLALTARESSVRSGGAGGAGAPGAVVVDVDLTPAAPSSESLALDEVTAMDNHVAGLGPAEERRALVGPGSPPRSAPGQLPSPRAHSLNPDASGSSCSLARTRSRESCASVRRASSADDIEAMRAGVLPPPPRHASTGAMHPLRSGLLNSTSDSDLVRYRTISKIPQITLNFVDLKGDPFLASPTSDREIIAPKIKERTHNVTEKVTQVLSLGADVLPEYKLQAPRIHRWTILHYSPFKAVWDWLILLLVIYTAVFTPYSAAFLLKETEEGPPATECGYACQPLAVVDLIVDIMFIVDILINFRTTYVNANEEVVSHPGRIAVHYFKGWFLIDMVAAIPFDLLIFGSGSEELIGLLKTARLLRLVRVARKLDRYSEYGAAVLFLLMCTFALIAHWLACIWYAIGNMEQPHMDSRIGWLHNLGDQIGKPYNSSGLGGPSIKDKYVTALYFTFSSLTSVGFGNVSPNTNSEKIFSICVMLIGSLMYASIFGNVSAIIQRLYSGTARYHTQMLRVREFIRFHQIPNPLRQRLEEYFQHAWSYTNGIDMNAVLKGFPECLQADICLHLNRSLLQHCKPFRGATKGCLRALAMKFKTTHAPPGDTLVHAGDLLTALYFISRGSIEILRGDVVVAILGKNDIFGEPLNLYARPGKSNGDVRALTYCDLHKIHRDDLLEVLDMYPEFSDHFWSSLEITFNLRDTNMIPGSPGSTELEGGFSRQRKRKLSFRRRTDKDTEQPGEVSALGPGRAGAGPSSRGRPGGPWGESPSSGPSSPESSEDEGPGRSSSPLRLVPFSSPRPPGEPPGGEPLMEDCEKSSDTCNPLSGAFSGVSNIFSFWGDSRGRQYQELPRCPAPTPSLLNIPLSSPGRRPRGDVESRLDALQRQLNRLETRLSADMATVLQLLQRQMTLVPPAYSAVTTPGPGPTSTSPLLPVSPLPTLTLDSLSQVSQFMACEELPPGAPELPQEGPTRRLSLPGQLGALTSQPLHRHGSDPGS
Procedure: (§2) Compounds were tested on voltage-gated ion channels using the medium-throughput electrophysiology IonWorks™ device. […] For carrying out the experiment, a boat in the “Cells” position of the IonWorks™ instrument was loaded with the cell suspension, and a 96-well PBS destination plate was placed in the “Plate 1” position. A 384-well PatchPlate™ was placed in the IonWorks™ plenum and held in position using the plenum clamp. From this point the experiment progress is automated and ultimately reports a non-cumulative concentration-effect curve for test compound.

physchem = assay type: physicochemical; details: 25 °C, pH 7.4, aqueous buffer, thermodynamic from solid
Procedure: Solubility of the compounds in 0.1M phosphate buffer, pH 7.4 was determined as described, Glyburide was used as QC standard in the assay. Briefly, compounds were diluted in ACN/water (40:60) to desired concentration, samples were dried using Genevac for 4 hrs and subsequently 800 μl of buffer was added. Compound containing plates were stirred for 24 hrs at 25° C. on Eppendorf Thermomix R at 750 rpm. Finally, compound concentration was estimated using UV and MS analysis.

[8] = test system: CYP1A2, CYP2C9, CYP2C19, CYP2D6, CYP3A4
[9] = test system: Mycobacterium tuberculosis (Mtb) H37Rv; assay: Mtb minimal bactericidal concentration (MBC), plating from MIC plates; assay type: cell-based; details: Table 4, read-out: Mtb MBC
Procedure: Aliquots from sample wells (MIC and higher) from the MIC plates were diluted 1:10 and plated on 7H10 agar plates. Plates were incubated at 37° C. for 3-4 weeks, CFU was enumerated.

in vitro [10] = assay type: in vitro ADME; details: plasma
Procedure: Protein binding is measured using the equilibrium dialysis technique. Compound is added to 10% plasma giving a concentration of 20 μM and dialysed with isotonic buffer for 18 hours at 37° C. The plasma and buffer solutions are analysed using generic LCUVMS and the first apparent binding constant for the compound derived. The binding constant is then used to determine the % free in 100% plasma.

[11] = pH 7.4
Procedure: Octanol-water partition coefficient (Log D) based on the shake-flask principle has been measured as follows. The aqueous solution used was 10 mM sodium phosphate buffer pH 7.4. 20 μL of 10 mM compound dissolved in DMSO was taken in glass vial plate. DMSO was removed using GeneVac. 435 μL of octanol was added using Tomtec, stirred for 5 min to dissolve. Further mixing was done by inversion for 5 h at 25° C., subsequently centrifuged for 30 min at 3000 RPM. LC/UV/APPI/MS quantitation of both aqueous and octanol layers was carried out. Log D value was determined according to the following equation.

[12] = test system: panel of human targets and cardiac channels
[13] = test system: hypoxia induced non-replicating persistent (NRP) Mtb cells; assay: Activity against hypoxia induced non-replicating persistent (NRP) Mtb (HBC, Wayne model); assay type: cell-based, Mycobacterium tuberculosis; details: hypoxic conditions, Wayne model; Table 4
[14] = test system: Mycobacterium tuberculosis (Mtb) H37Rv ATCC 27294; assay: microbe, parasite or virus in culture; assay type: cell-based; details: Mycobacterium tuberculosis, read-out: Mtb MIC
[15] = test system: A549 human lung carcinoma cells; assay type: cell-based
Procedure: The in vitro cytotoxicity of compounds were measured against A549 human lung carcinoma cells as describedin Eakin et. al (2012). Briefly, A549 cells (ATCC) were grown in RPMI medium (GIBCO-BRL) containing 10% heat-inactivated fetal bovine serum (GIBCO-BRL) and 1 mM L-glutamine (GIBCO-BRL) at a density of 1,000 cells/well. After incubation of the cells with compound in a CO2 atmosphere at 37° C. for 72 hours, cell viability was determined following addition of […] of resazurin solution (Sigma), by measuring fluorescence (excitation at 535 nm, emission at 590 nm) using a fluorimeter.

in vivo [16] = details: male, Wistar, rat, po, 100 mg/kg
hERG [17] = target: T1, hERG; assay: hERG assay, IonWorks electrophysiology
Procedure: as §2

[18] = Wistar, rat, in vivo, po, 30 mg/kg
[19] = Wistar, rat, in vivo, iv, 2 mg/kg
[20] = Wistar, rat, in vivo, po, 20 mg/kg

SMILES	microsomal CLint (in vitro [2]) [µL/min/mg]	predicted clearance [3]	AUC(0-inf) (in vivo [4]; [18]) [µM·h]	Cmax (in vivo [4]; [18]) [µM]	Tmax (in vivo [4]; [18]) [h]	half-life (in vivo [4]; [18]) [h]	Human CLpred hepatocytes (% LBF) [5] [% LBF]	Rat CLpred hepatocytes (% LBF) [5] [% LBF]	hERG (hERG [7]) [µM]	Human CLpred microsomes (% LBF) [3] [% LBF]	MBC [9] [µM]	Secondary pharmacology hits IC50 [12]	in vitro safety profiling [12]	Mtb HBC [13] [µM]	MIC ([14]; Table 1) [µM]	MIC ([14]; Table 4) [µM]	AUC(0-inf) (in vivo [16]) [µM·h]	Cmax (in vivo [16]) [µM]	Tmax (in vivo [16]) [h]	half-life (in vivo [16]) [h]	further results
COc1ncnc(Cn2cc(C(=O)NCC3CC3)c3ncccc32)c1C [Compound 4, N-(cyclopropylmethyl)-1-((6-methoxy-5-methylpyrimidin-4-yl)methyl)-1H-pyrrolo[3,2-b]pyridine-3-carboxamide]	180	4-18 % of liver blood flow (% LBF)	22.9	2.35	3	3.64	4.3	13	>33	–	–	–	–	–	–	–	–	–	–	–	AUC (in vivo [1]): 200 to 700 µM·h; AUC(0-inf) (in vivo [1]; 30 mg/kg): 227 ± 28.9 µM·h; Cmax (in vivo [1]; 30 mg/kg): 17.4 ± 1.76 µM; Tmax (in vivo [1]; 30 mg/kg): 5.67 ± 2.31 h; half-life (in vivo [1]; 30 mg/kg): 3.85 ± 0.54 h; AUC(0-inf) (in vivo [6]): 200 ± 101 µM·h; Cmax (in vivo [6]): 38.9 ± 15.2 µM; Tmax (in vivo [6]): 4.5 ± 2.78 h; half-life (in vivo [6]): 2.23 ± 0.35 h
COc1ncnc(Cn2cc(C(=O)NCCF)c3ncc(C)cc32)c1C [Compound 8, N-(2-fluoroethyl)-1-((6-methoxy-5-methylpyrimidin-4-yl)methyl)-6-methyl-1H-pyrrolo[3,2-b]pyridine-3-carboxamide]	108	–	29.3	3.69	4.5	3.58	–	–	>33	10.1	< 0.39	No significant hits	no major safety liabilities	100	< 0.53	< 0.39	98.4 ± 31.9	11.9 ± 3	1.5 ± 0.6	7.2 ± 1.3	solubility (physchem): 4 µM (≈ 1.43 µg/mL); CYP inhibition ([8]; human): >50 µM; AUC(0-inf) (in vivo [4]; BALB/c, mouse, po, 30 mg/kg): 64.2 µM·h; Cmax (in vivo [4]; BALB/c, mouse, po, 30 mg/kg): 13.4 µM; Tmax (in vivo [4]; BALB/c, mouse, po, 30 mg/kg): 2 h; half-life (in vivo [4]; BALB/c, mouse, po, 30 mg/kg): 4.15 h; Human CLpred hepatocytes (% LBF) ([5]; 1 μM): 4.3 % LBF; Rat CLpred hepatocytes (% LBF) ([5]; 1 μM): 14.9 % LBF; fraction unbound at 18 h, 20 μM (in vitro [10]; human): 0.05 to 0.22; Human PPB (% free) (in vitro [10]): 5 % free; logD [11]: 2.6; MMIC (A549) ([15]; human, 72 h): >100 µM
COc1ncnc(Cn2cc(C(=O)NCCO)c3ncc(C)cc32)c1C [Compound 17, N-(2-hydroxyethyl)-1-((6-methoxy-5-methylpyrimidin-4-yl)methyl)-6-methyl-1H-pyrrolo[3,2-b]pyridine-3-carboxamide]	25	4-18 % of liver blood flow (% LBF)	–	–	–	–	9.2	17.9	–	16.1	0.78 to 1.56 (≈ 0.277 to 0.554 µg/mL)	No significant hits	no major safety liabilities	>100	1.56 (≈ 0.554 µg/mL)	1.56 to 3.12 (≈ 0.554 to 1.11 µg/mL)	986 ± 274	46.1 ± 7.7	5.3 ± 1.2	3.8 ± 0.6	CYP inhibition ([8]; CYP1A2, CYP2C9, CYP2C19, CYP2D6, CYP3A4): >50 µM; AUC(0-inf) (in vivo [4]; BALB/c, mouse, po, 50 mg/kg): 420 ± 23.5 µM·h; Cmax (in vivo [4]; BALB/c, mouse, po, 50 mg/kg): 74.8 ± 15.6 µM; Tmax (in vivo [4]; BALB/c, mouse, po, 50 mg/kg): 1.33 ± 0.58 h; half-life (in vivo [4]; BALB/c, mouse, po, 50 mg/kg): 1.78 ± 0.1 h; C0h (in vivo [4]; Wistar rats, IV 2 mg/kg, n = 2): 2.64 µM; F (in vivo [4]; Wistar rats, oral 20 mg/kg, n = 2): 100%; AUC(0-t) (in vivo [4]; [19]): 3.46 µM·h; Vd (in vivo [4]; [19]): 7.34 L/kg; clearance (in vivo [4]; [19]): 27.4 mL/min/kg; bioavailability (in vivo [4]; Wistar, rat, in vivo, po): 92%; AUC(0-inf) (in vivo [4]; [20]): 59.8 µM·h; Cmax (in vivo [4]; [20]): 17.8 µM; Tmax (in vivo [4]; [20]): 0.5 h; half-life (in vivo [4]; [20]): 2.74 h; MMIC (A549) ([15]; 72 hours treatment, Table 4): >100 µM; hERG (hERG [17]): >33 µM
